Assay results published in patent US7456220B2, “Immunodulatory compositions and methods of use thereof” (priority 1999, dated 2008).

Test system: gentamicin resistant Escherichia coli
Test: Rat sepsis model, mortality vs. saline control (Example 15)
Type: in vivo, Wistar rats
Details: Gentamicin 2 mg, gel 2 ml I.M., 24 hours before challenge, Group D mixture, timing not given
Experimental: The model system utilizes Wistar rats surgically implanted with an inoculum of intestinal contents from other rats. The inoculum is prepared in a manner which simulates the microbiologic parameters of the human colon. This is accomplished by placing rats on a diet of lean ground beef for two weeks, and then harvesting, homogenizing and freezing aliquots of prepared intestinal contents for subsequent use. The clinical end points for evaluation in this model are mortality, while microbiologic end points include blood and peritoneal cultures. The general experimental design and methods are as follows.
Male, Wistar, virus antibody free (VAF) rats (Charles River Laboratories, Wilmington, Mass.), weighing 175-200 grams, are utilized for all experiments. All animals are housed, five per cage, within a VAF facility, and given food and water ad libitum, except for those animals used for preparation of the meat-fed cecal inoculum (see below). Animal experiments are carried out according to the guidelines of the Harvard Medical Area Standing Committee on Animals, in facilities accredited by the American Association for the Accreditation of Laboratory Animal Care.
The innoculum for this study is prepared as described in A. Onderdonk et al., Experimental intra-abdominal abscesses in rats; quantitative bacteriology of infected animals. Infection and Immunity, 10:1256-9 (1974); and A. Onderdonk et al., Experimental intra-abdominal abscesses in rats: development of animal model. Infection and Immunity, 10:1256-1259 (1974). Briefly, cecal contents from meat-fed rats are combined with peptone-yeast-glucose broth to form a slurry. This slurry is filtered through gauze to remove large particulate material, aliquoted and frozen at −80° C. until used. Preliminary testing of this inoculum is performed to determine the proper dilution of the inoculum to yield a mortality of 60%-70% in an untreated group.
Animals are anesthetized with Nembutal (50 mg/Kg), and prepared for surgical implantation of the inoculum by shaving the abdomen and applying an iodine solution. A 3-4 cm midline incision is made through the skin and anterior abdominal wall, and a gelatin capsule containing 0.5 mL of the inoculum is inserted into the pelvic region. The incision is closed with one 3-0 suture, and the animals are observed four times per day for the first 48 hours, and every eight hours thereafter. Visibly moribund animals are humanely sacrificed with CO2.
Groups of twenty animals each are implanted with the inoculum described above. For each experiment, a control group of sham-treated animals is employed. For experiments in which quantitative blood and peritoneal cultures are obtained, sufficient additional animals are implanted to allow for such cultures, but mortality in these groups is not included in the clinical outcome calculations, due to the additional manipulation of the animals. Surviving animals from each group are sacrificed after seven days.
A comparison of groups with regard to mortality is made by chi-square analysis as supplied on commercially available statistical software (Instat, GraphPad Software, San Diego, Calif.). A comparison group mean bacterial count is made using Student's T test.
Animals were divided into Groups A, B, C and D, with each Group containing 15 animals. All groups were challenged with 2.629 ml gentamicin resistant Escherichia coli, 0.32 ml Dextran Sulfate, and 29.051 ml Peptone Yeast Glucose. Group A was treated 2 hours after challenge, while Groups B and C were treated 24 hours before challenge. Group A was treated with 2 ml saline I.M.; Group B was treated with 2 mg Gentamicin; Group C was treated with 2 ml HA/CMC/EDC gel I.M.; and Group D was treated with a mixture of Gentamicin and HA/CMC/EDC gel.
The animals were held for 48 hours, and assessed for mortality vs. the saline control.

## Gentamicin
24 hr
  % mortality: 23.1%
  mortalities (M): 3
  surviving animals (A): 10
48 hr
  % mortality: 38.5%
  mortalities (M): 2
  surviving animals (A): 8
Total
  % mortality: 38.5%
  mortalities (M): 5
  surviving animals (A): 8
